Consider six compounds from patent EP3936131A1, “COMPOUNDS FOR THE TREATMENT OF ZIKA” (Dompe' Farmaceutici S.P.A., priority 2020, dated 2022).

The subject of this test is ZIKV (HS-2015-BA-01). Nature of the test: Plaque titration assay of supernatant from ZIKV-infected Vero CCL-81 cells treated with compound. The class given is cell-based, Zika Virus. The following applies: 30, 10 and 3 microM (AEE-788 and Olcegepant: 10 and 3 microM); MOI 0.1; two treatments 24 h apart; compared to vehicle control; values only in Figures 1 to 8. As for the experimental part:
The above compounds selected by the CADD analysis were tested in a ZIKV Vero CCL-81 cells (kidney epithelial cells from African green monkey) assay. This assay is based on viral infection of Vero cells followed by visual monitoring of cytopathic effects of the virus.
In details, the above compounds were diluted to the final concentrations of 30 microM, 10 microM and 3 microM. The final volume required for treatment was 200 microliters per well, in a total of 12 wells.
For infection of the cells, ZIKV (HS-2015-BA-01), isolated from a viremic patient with symptomatic infection in Bahia State, Brazil, in 2015, was used. The complete genome of the virus is under access KX520666 in Genbank. Viral dilutions were prepared in Multiplicity of Infection (MOI) at 0.1 according to a standardized method.
In particular, 37,9 microl of virus (6x10^7 pfu/mL) was used or a total of 25.000 microl (25 ml) RPMI-0% FBS medium
100 microliters of the viral dilution (MOI 0,1) were added to each well and incubated at 5% of CO2 at T= 37°C for 1 hour for adsorption step, swift rocking every 15'.
After discarding the supernatant, 200 microliters of diluted compounds at the different concentrations described above, or vehicle were added for each compound and left in incubation at 5% of CO2 at T= 37°C for 24 hours.
After 24 hours of the first treatment the treatment was repeated a second time, with the same concentration of each compound, and at the same conditions (5% of CO2 at T= 37°C for […]).
After 24 hours, the supernatant was collected and used to perform MTT, LDH plaque titration assays, as described above.
Vero CCL-81 cells (kidney epithelial cells from African green monkey) were seeded in 24-well plates at a density of […].
Cells were maintained in RPMI 1640 medium (Cultilab) supplemented with 10% FBS (Cultilab), 2 mM L-glutamine (Gibco) and 100U/50µg penicillin/streptomycin (Sigma-Aldrich) for 24 h at 37°C in a 5% CO2 incubator.
Serial ten-fold dilutions of viral suspension in sterile dilution tubes were prepared (10-1 up to 10-4). To this aim, tubes were filled with 450 microl of medium 0% SFB and 50 microl of the sample added on the first tube. The same procedure was repeated to obtain serial dilutions by passing 50 microliters to the next dilution and successively for the other dilutions. 300 µl of each serial dilution were added into each of the two wells of 24-well plate, maintaining two wells without infection.
The inoculated plate was incubated at 37°C for 1 hour in a 5% CO2 incubator to allow virus adsorption, swift rocking every 15'. Once discard the cell supernatant from all wells, 1 ml of 1,60% semi-solid carboxymethyl cellulose (CMC) overlay medium with 2% FBS was added to each well to limit the virus dissemination.
The plate was left 4 days at 37°C in a 5% CO2 incubator. Then cell monolayer was incubated with 1 ml of the 10% formol for a minimum 18 hours at room temperature for fixation. Once removed and fixed the overlay medium, the cell monolayer was washed in running water, stained with 1 ml of the 0.04% Violet crystal for 1 hour at room temperature, and the count of viral plaques to calculate plaque-forming unit (PFU) was conducted.
Take `CCOc1nc2cccc(C(=O)OC(C)OC(=O)OC3CCCCC3)c2n1Cc1ccc(-c2ccccc2-c2nnn[nH]2)cc1` (racemic) [Candesartan cilexetil, (±)-2-Ethoxy-1-[2'-(1 H-tetrazol-5-yl)biphenyl-4-ylmethyl]-1 H-benzimidazole-7-carboxylic acid 1-(cyclohexyloxycarbonyloxy) ethyl ester]: the “virus replication (viral load expressed as log10 plaque forming equivalents)” value is given as “inhibition of virus replication”.

On to `CCN1CCN(Cc2ccc(-c3cc4c(N[C@H](C)c5ccccc5)ncnc4[nH]3)cc2)CC1` [AEE-788, 6-[4-(4-Ethylpiperazin-1-ylmethyl)phenyl]-N-[1(R)-phenylethyl]-7H-pyrrolo[2,3-d]pyrimidin-4-amine], for which the “virus replication (viral load expressed as log10 plaque forming equivalents)” value is reported as “inhibition of virus replication”.

Turning to `Cn1c(=O)n(-c2ccc(C(C)(C)C#N)cc2)c2c3cc(-c4cnc5ccccc5c4)ccc3ncc21` [Dactolisib, 2-Methyl-2-[4-[3-methyl-2-oxo-8-(3-quinolinyl)-2,3-dihydro-1 H-imidazo[4,5-c]quinolin-1-yl]phenyl]propanenitrile], the “virus replication (viral load expressed as log10 plaque forming equivalents)” value is reported as “inhibition of virus replication”.

On to `NCCCC[C@H](NC(=O)[C@@H](Cc1cc(Br)c(O)c(Br)c1)NC(=O)N1CCC(N2Cc3ccccc3NC2=O)CC1)C(=O)N1CCN(c2ccncc2)CC1` [Olcegepant, N-[2-[5-Amino-1 (S)-[4-(4-pyridyl)piperazin-1-ylcarbonyl]pentylamino]-1(R)-(3,5-dibromo-4-hydroxybenzyl)-2-oxoethyl]-4-(2-oxo-1,2,3,4-tetrahydroquinazolin-3-yl)piperidine-1-carboxamide], for which the “virus replication (viral load expressed as log10 plaque forming equivalents)” value is listed as “inhibition of virus replication”.

`CC[C@@H]([C@H](C)O)n1ncn(-c2ccc(N3CCN(c4ccc(OC[C@@H]5CO[C@@](Cn6cncn6)(c6ccc(F)cc6F)C5)cc4)CC3)cc2)c1=O` [Posaconazole, 4-[4-[4-[4-[5(R)-(2,4-Difluorophenyl)-5-(1,2,4-triazol-1-ylmethyl)tetrahydrofuran-3(R)-ylmethoxy]phenyl]piperazin-1-yl]phenyl]-2-[1(S)-ethyl-2(S)-hydroxypropyl]-3,4-dihydro-2H-1,2,4-triazol-3-one]: the “virus replication (viral load expressed as log10 plaque forming equivalents)” value was “inhibition of virus replication”.

For `Cc1cc(/C=C/C#N)cc(C)c1Nc1ccnc(Nc2ccc(C#N)cc2)n1.Cl` [Rilpivirine hydrochloride, 4-[4-[4-[(E)-2-Cyanovinyl]-2,6-dimethylphenylamino]pyrimidin-2-ylamino]benzonitrile hydrochloride], the “virus replication (viral load expressed as log10 plaque forming equivalents)” value was “inhibition of virus replication”.
